From patent US12162820B2 (TAIWANJ PHARMACEUTICALS CO., LTD., priority 2019, dated 2024)

Assays:
Format in all cases: biochemical
ATX (autotaxin) = target: T1, ATX (autotaxin) (Homo sapiens, UniProt Q13822); experiment: Autotaxin Inhibition Screening Assay (choline release from LPC, LPC-CR); details: for inhibition at 4 µM: 4 μM compound; for inhibition at 20 µM: 20 μM compound; for inhibition at 50 µM: 50 μM compound
T1 construct: purchased Cayman 10803
Method in brief: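 Released choline from 100 μM 14:0 LPC, detected via choline oxidase–HRP–homovanillic acid fluorescence (320/450 nm) kinetically over 90 min, reports activity of 20 ng ATX. Buffer: 50 mM Tris pH 8.0, 50 mM CaCl2, 0.01% Triton X-100; test compounds 4, 20, 50 μM; percent inhibition from blank-subtracted slopes relative to vehicle.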

HDAC2 = target: T2, HDAC2 (Homo sapiens, UniProt Q92769); experiment: HDAC Inhibition Screening Assay (FLUOR DE LYS Fluorimetric Drug Discovery Kit), HDAC2; details: for inhibition at 2 µM: 2 μM compound; for inhibition at 10 µM: 10 μM compound; for inhibition at 50 µM: 50 μM compound
T2 construct: purchased Enzo Life Sciences
T2 sequence (Q92769 whole entry): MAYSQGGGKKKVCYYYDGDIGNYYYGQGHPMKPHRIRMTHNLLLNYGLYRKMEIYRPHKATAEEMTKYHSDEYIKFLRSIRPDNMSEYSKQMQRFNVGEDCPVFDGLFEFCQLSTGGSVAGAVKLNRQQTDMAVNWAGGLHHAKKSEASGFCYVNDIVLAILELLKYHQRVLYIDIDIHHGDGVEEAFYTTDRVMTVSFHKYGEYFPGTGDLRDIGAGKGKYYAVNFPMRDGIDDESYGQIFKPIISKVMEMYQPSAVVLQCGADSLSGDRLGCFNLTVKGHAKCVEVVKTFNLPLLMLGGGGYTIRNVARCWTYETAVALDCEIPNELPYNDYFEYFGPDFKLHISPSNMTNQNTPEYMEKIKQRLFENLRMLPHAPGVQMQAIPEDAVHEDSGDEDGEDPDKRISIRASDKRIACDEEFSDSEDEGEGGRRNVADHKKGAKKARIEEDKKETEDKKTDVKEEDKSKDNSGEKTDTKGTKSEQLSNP
Method in brief: (§1)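 Compounds at 2 μM, 10 μM and 50 μM were each tested against HDAC1, HDAC2 and HDAC3 using a two-step fluorimetric assay. Results are given as percent of basal control after baseline subtraction.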

HDAC3 = target: T3, HDAC3 (Homo sapiens, UniProt O15379); experiment: HDAC Inhibition Screening Assay (FLUOR DE LYS Fluorimetric Drug Discovery Kit), HDAC3; details: for inhibition at 2 µM: 2 μM compound; for inhibition at 10 µM: 10 μM compound; for inhibition at 50 µM: 50 μM compound
T3 construct: purchased Enzo Life Sciences
T3 sequence (O15379 whole entry): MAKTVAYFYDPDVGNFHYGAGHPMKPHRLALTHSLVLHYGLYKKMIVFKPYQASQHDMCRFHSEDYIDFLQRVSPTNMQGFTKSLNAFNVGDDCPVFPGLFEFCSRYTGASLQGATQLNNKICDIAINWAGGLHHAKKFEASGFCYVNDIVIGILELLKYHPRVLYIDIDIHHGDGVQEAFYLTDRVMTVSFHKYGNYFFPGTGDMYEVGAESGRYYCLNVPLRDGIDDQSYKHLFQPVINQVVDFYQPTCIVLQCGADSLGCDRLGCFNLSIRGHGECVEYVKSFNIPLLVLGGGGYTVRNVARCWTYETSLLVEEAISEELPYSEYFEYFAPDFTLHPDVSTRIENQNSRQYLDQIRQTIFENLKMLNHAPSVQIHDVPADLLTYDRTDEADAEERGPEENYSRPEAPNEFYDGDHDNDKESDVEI
T3 sequence (O75376 395-489 partner limits assumed): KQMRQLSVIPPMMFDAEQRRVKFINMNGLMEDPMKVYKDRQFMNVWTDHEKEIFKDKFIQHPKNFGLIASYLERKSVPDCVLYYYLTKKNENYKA
Method in brief: as §1

HDAC1 = target: T4, HDAC1 (Homo sapiens, UniProt Q13547); experiment: HDAC Inhibition Screening Assay (FLUOR DE LYS Fluorimetric Drug Discovery Kit), HDAC1; details: for inhibition at 2 µM: 2 μM compound; for inhibition at 10 µM: 10 μM compound; for inhibition at 50 µM: 50 μM compound
T4 construct: purchased Enzo Life Sciences
T4 sequence (Q13547 whole entry): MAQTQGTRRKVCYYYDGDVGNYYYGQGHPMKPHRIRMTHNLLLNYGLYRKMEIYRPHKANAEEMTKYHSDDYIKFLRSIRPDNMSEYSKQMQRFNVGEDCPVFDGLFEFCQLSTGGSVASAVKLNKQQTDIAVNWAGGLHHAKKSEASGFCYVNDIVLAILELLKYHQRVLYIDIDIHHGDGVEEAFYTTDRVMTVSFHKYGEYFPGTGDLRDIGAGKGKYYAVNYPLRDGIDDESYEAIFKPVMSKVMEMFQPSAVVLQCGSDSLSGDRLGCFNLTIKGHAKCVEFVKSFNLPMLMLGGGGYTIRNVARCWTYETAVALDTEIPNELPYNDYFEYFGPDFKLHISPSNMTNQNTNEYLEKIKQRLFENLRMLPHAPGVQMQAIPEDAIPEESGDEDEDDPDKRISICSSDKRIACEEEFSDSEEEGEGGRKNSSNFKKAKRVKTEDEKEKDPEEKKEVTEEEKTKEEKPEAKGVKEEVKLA
Method in brief: as §1

Row | Structure (SMILES) | inhibition at 4 µM (ATX (autotaxin)) [%] | inhibition at 20 µM (ATX (autotaxin)) [%] | inhibition at 50 µM (ATX (autotaxin)) [%] | inhibition at 2 µM (HDAC2) [%] | inhibition at 10 µM (HDAC2) [%] | inhibition at 50 µM (HDAC2) [%] | inhibition at 2 µM (HDAC3) [%] | inhibition at 10 µM (HDAC3) [%] | inhibition at 50 µM (HDAC3) [%] | inhibition at 2 µM (HDAC1) [%] | inhibition at 10 µM (HDAC1) [%] | inhibition at 50 µM (HDAC1) [%]
1 | O=C(CCCCCCC(=O)NC1CCCc2cc(Br)ccc21)NO (stereo not drawn) [Compound 46, N1-(6-bromo-1,2,3,4-tetrahydronaphthalen-1-yl)-N8-hydroxyoctanediamide] | < 50 | < 50 | < 50 | < 50 | 50 to 80 | > 80 | < 50 | < 50 | 50 to 80 | < 50 | 50 to 80 | 50 to 80
2 | COc1ccc2c(c1)CCCC2NC(=O)CCCCCCC(=O)Nc1ccc(F)cc1N (stereo not drawn) [Compound 47, N1-(2-amino-4-fluorophenyl)-N8-(6-methoxy-1,2,3,4-tetrahydronaphthalen-1-yl)octanediamide] | < 50 | < 50 | < 50 | < 50 | 50 to 80 | 50 to 80 | 50 to 80 | 50 to 80 | > 80 | < 50 | < 50 | < 50
3 | COc1ccc2c(c1)CCCC2NC(=O)CCCCCCC(=O)NO (stereo not drawn) [Compound 48, N^1-hydroxy-N^8-(6-methoxy-1,2,3,4-tetrahydronaphthalen-1-yl)octanediamide] | < 50 | < 50 | < 50 | > 80 | > 80 | > 80 | > 80 | > 80 | > 80 | > 80 | > 80 | > 80
4 | O=C(/C=C/c1ccc2c(c1)CCC2NCCC(=O)Nc1cc(C(F)(F)F)cc(C(F)(F)F)c1)NO (stereo not drawn) [Compound 50, (E)-3-(1-((3-((3,5-bis(trifluoromethyl)phenyl)amino)-3-oxopropyl)amino)-2,3-dihydro-1H-inden-5-yl)-N-hydroxyacrylamide] | < 50 | < 50 | < 50 | > 80 | > 80 | > 80 | > 80 | > 80 | > 80 | > 80 | > 80 | > 80
5 | O=C(/C=C/c1ccc2c(c1)CCC2NCCc1cc(Cl)cc(Cl)c1)NO (stereo not drawn) [Compound 55, (E)-3-(1-((3,5-dichlorophenethyl)amino)-2,3-dihydro-1H-inden-5-yl)-N-hydroxyacrylamide] | < 50 | < 50 | < 50 | > 80 | > 80 | > 80 | > 80 | > 80 | > 80 | > 80 | > 80 | > 80
6 | CN(C)c1ccc(CCNC2CCc3cc(/C=C/C(=O)NO)ccc32)cc1 (stereo not drawn) [Compound 56, (E)-3-(1-((4-(dimethylamino)phenethyl)amino)-2,3-dihydro-1H-inden-5-yl)-N-hydroxyacrylamide] | < 50 | < 50 | < 50 | > 80 | > 80 | > 80 | > 80 | > 80 | > 80 | > 80 | > 80 | > 80
7 | Nc1cc(F)ccc1NC(=O)/C=C/c1ccc2c(c1)CCC2NCCc1c[nH]c2ccccc12 (stereo not drawn) [Compound 57, (E)-3-(1-((2-(1H-indol-3-yl)ethyl)amino)-2,3-dihydro-1H-inden-5-yl)-N-(2-amino-4-fluorophenyl)acrylamide] | < 50 | < 50 | < 50 | 50 to 80 | > 80 | > 80 | > 80 | > 80 | > 80 | < 50 | 50 to 80 | > 80
8 | O=C(/C=C/c1ccc2c(c1)CCC2NCCc1c[nH]c2ccccc12)NO (stereo not drawn) [Compound 58, (E)-3-(1-((2-(1H-indol-3-yl)ethyl)amino)-2,3-dihydro-1H-inden-5-yl)-N-hydroxyacrylamide] | < 50 | < 50 | 50 to 80 | > 80 | > 80 | > 80 | > 80 | > 80 | > 80 | > 80 | > 80 | > 80
9 | Cc1[nH]c2ccccc2c1CCNC1CCc2cc(/C=C/C(=O)Nc3ccc(F)cc3N)ccc21 (stereo not drawn) [Compound 59, (E)-N-(2-amino-4-fluorophenyl)-3-(1-((2-(2-methyl-1H-indol-3-yl)ethyl)amino)-2,3-dihydro-1H-inden-5-yl)acrylamide] | < 50 | < 50 | < 50 | > 80 | > 80 | > 80 | > 80 | > 80 | > 80 | 50 to 80 | > 80 | > 80

The next lines start with the values.

Row | inhibition at 4 µM (ATX (autotaxin)) [%] | inhibition at 20 µM (ATX (autotaxin)) [%] | inhibition at 50 µM (ATX (autotaxin)) [%] | inhibition at 2 µM (HDAC2) [%] | inhibition at 10 µM (HDAC2) [%] | inhibition at 50 µM (HDAC2) [%] | inhibition at 2 µM (HDAC3) [%] | inhibition at 10 µM (HDAC3) [%] | inhibition at 50 µM (HDAC3) [%] | inhibition at 2 µM (HDAC1) [%] | inhibition at 10 µM (HDAC1) [%] | inhibition at 50 µM (HDAC1) [%] | Structure (SMILES)
10 | < 50 | < 50 | < 50 | > 80 | > 80 | > 80 | > 80 | > 80 | > 80 | > 80 | > 80 | > 80 | O=C(CCCCCN(CC(=O)NC1CCc2ccccc21)CC(=O)NC1CCc2ccccc21)NO (stereo not drawn) [Compound 45, 2,2′-((6-(hydroxyamino)-6-oxohexyl)azanediyl)bis(N-(2,3-dihydro-1H-inden-1-yl)acetamide)]
11 | < 50 | < 50 | < 50 | < 50 | < 50 | 50 to 80 | < 50 | < 50 | 50 to 80 | < 50 | < 50 | < 50 | Nc1cc(F)ccc1NC(=O)/C=C/c1ccc2c(c1)CCC2NCCC(=O)Nc1cc(C(F)(F)F)cc(C(F)(F)F)c1 (stereo not drawn) [Compound 49, (E)-N-(2-amino-4-fluorophenyl)-3-(1-((3-((3,5-bis(trifluoromethyl)phenyl)amino)-3-oxopropyl)amino)-2,3-dihydro-1H-inden-5-yl)acrylamide]
12 | < 50 | < 50 | < 50 | 50 to 80 | > 80 | > 80 | > 80 | > 80 | > 80 | < 50 | 50 to 80 | > 80 | COc1ccc(CCNC2CCc3cc(/C=C/C(=O)Nc4ccc(F)cc4N)ccc32)cc1 (stereo not drawn) [Compound 51, (E)-N-(2-amino-4-fluorophenyl)-3-(1-((4-methoxyphenethyl)amino)-2,3-dihydro-1H-inden-5-yl) acrylamide]
13 | < 50 | < 50 | < 50 | > 80 | > 80 | > 80 | > 80 | > 80 | > 80 | > 80 | > 80 | > 80 | COc1ccc(CCNC2CCc3cc(/C=C/C(=O)NO)ccc32)cc1 (stereo not drawn) [Compound 52, (E)-N-hydroxy-3-(1-((4-methoxyphenethyl)amino)-2,3-dihydro-1H-inden-5-yl)acrylamide]
14 | < 50 | < 50 | < 50 | > 80 | > 80 | > 80 | > 80 | > 80 | > 80 | > 80 | > 80 | > 80 | O=C(/C=C/c1ccc2c(c1)CCC2NCCc1ccc(F)cc1)NO (stereo not drawn) [Compound 53]
15 | < 50 | < 50 | < 50 | > 80 | > 80 | > 80 | > 80 | > 80 | > 80 | > 80 | > 80 | > 80 | O=C(/C=C/c1ccc2c(c1)CCC2NCCc1cc(C(F)(F)F)cc(C(F)(F)F)c1)NO (stereo not drawn) [Compound 54, (E)-3-(1-((3,5-bis(trifluoromethyl)phenethyl)amino)-2,3-dihydro-1H-inden-5-yl)-N-hydroxyacrylamide]
